Assays:
[1] = target: T1, Full-length human Chk1 protein (Homo sapiens, UniProt O14757); assay: Kinase HTRF biochemical assay (HTRF KinEASE), Chk1 enzyme activity; settings: full-length human Chk1, ATP 1 mM, 60 minutes at room temperature
T1 construct: purchased Carna Biosciences, Inc. 02-117
T1 sequence (O14757 1-476): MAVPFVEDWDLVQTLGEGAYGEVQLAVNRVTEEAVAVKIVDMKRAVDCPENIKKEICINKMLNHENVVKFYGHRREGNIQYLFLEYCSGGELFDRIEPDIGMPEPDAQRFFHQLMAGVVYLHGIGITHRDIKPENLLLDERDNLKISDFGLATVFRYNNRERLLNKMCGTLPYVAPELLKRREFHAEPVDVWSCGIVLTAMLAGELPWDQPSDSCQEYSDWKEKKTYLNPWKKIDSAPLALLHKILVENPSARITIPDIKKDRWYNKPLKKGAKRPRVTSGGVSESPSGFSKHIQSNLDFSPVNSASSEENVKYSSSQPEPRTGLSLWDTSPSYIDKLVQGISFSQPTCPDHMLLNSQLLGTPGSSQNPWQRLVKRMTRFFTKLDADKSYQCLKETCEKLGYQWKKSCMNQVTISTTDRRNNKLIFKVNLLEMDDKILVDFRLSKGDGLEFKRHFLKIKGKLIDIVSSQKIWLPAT
Summary of the method: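 Full-length human Chk1 (0.012 ng/μL) in buffer with 5 mM MgCl2 and 1 mM DTT, preincubated with compound 10 min at room temperature; reaction with 120 nM biotinylated STK substrate 1 and 1 mM ATP for 60 min at room temperature. HTRF detection via cryptate antibody/streptavidin-XL665; IC50 from 10-point duplicate curves.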

p-CHK1 (Ser345) = assay: AlphaLISA SureFire Ultra p-CHK1 (Ser345) cellular assay in HT29 cells; assay type: cell-based; settings: Homo sapiens, HT-29, 16 h at 37° C.
Description: Example B: AlphaLisa Cellular Assay
Compound activity in cells was measured using an AlphaLISA® SureFire® Ultra™ p-CHK1 (Ser345) assay (Perkin Elmer, catalog no. ALSU-PCHK1-A10K). HT29 cells were cultured in McCoy 5A medium with 10% FBS and 1% penicillin-streptomycin and seeded to 96-well plates (Corning, catalog no. 3599). Compounds were serially diluted in DMSO over a 10-point dose range with 3-fold dilution and to each well containing cells was added compound solution. Plates were centrifuged at 1000 rpm for 30 seconds. Plates were incubated at 37° C. for 16 h. Supernatant was removed by flicking the plate against a paper towel. Wells were washed once with PBS solution. To each well was added freshly prepared lysis buffer and plates were agitated on a plate shaker at 400 rpm for 30 min. The 96-well cell plates were centrifuged at 1500 rpm for 1 minute. From each well was transferred 10 μL of the lysates to a 384-well Optiplate™ (Perkin Elmer, catalog no. 6007290). To each well was added Acceptor Mix (5 μL) and the plates were sealed and wrapped in foil. Plates were agitated on a plate shaker for 2 minutes, then incubated at room temperature for 1 h. To each well was added Donor Mix (5 μL) and the plates were sealed and wrapped in foil. Plates were agitated on a plate shaker for 2 minutes, then incubated at room temperature for 1 h. AlphaLisa signal was read on an EnVision multimode plate reader (Perkin Elmer). Data were fit to dose-response curves using XLfit (IDBS, Surrey, UK) or Prism (GraphPad Software, La Jolla, Calif., US) to calculate IC50 values for each compound tested.

Compound	IC50 [1] [nM]	IC50 (p-CHK1 (Ser345)) [nM]
N#Cc1cnc(Nc2cc(-c3c(F)cc(Cl)cc3O[C@@H]3CC[C@@H](N)C3)[nH]n2)cn1 [Example 3-30, 5-((5-(2-(((1R,3R)-3-aminocyclopentyl)oxy)-4-chloro-6-fluoropheny)-1H-pyrazol-3-yl)amino)pyrazine-2-carbonitrile]	≤ 10	100 to 500
Cc1cc(O[C@@H]2CC[C@H](N)C2)c(-c2cc(Nc3cnc(C#N)cn3)n[nH]2)nc1C [Example 3-48, 5-((5-(3-(((1R,3S)-3-aminocyclopentyl)oxy)-5,6-dimethylpyridin-2-yl)-1H-pyrazol-3-yl)amino)pyrazine-2-carbonitrile]	≤ 10	≤ 50
COc1cccc(O[C@@H]2CCCC[C@H](N)C2)c1-c1cc(Nc2cnc(C#N)cn2)n[nH]1 [Example 3-8, 5-((5-(2-(((1R,3S)-3-aminocycloheptyl)oxy)-6-methoxyphenyl)-1H-pyrazol-3-yl)amino)pyrazine-2-carbonitrile]	≤ 10	≤ 50
Cc1ccc(O[C@H]2CC[C@H](N)CC2)c(-c2cc(Nc3cnc(C#N)cn3)n[nH]2)n1 [Example 1-56, 5-((5-(3-(((1r,4r)-4-aminocyclohexyl)oxy)-6-methylpyridin-2-yl)-1H-pyrazol-3-yl)amino)pyrazine-2-carbonitrile]	≤ 10	100 to 500
COc1cc(Cl)cc(O[C@@H]2CC[C@H](N)C2)c1-c1cc(Nc2cnc(C#N)cn2)n[nH]1 [Example 1-29, 5-((5-(2-(((1R,3S)-3-aminocyclopentyl)oxy)-4-chloro-6-methoxyphenyl)-1H-pyrazol-3-yl)amino)pyrazine-2-carbonitrile]	≤ 10	100 to 500
CCOc1cccc(O[C@H]2CC[C@H](N)CC2)c1-c1cc(Nc2cnc(C#N)cn2)n[nH]1 [Example 1-17, 5-((5-(2-(((1r,4r)-4-aminocyclohexyl)oxy)-6-ethoxyphenyl)-1H-pyrazol-3-yl)amino)pyrazine-2-carbonitrile]	10 to 100	500 to 1000
N#Cc1cnc(Nc2cc(-c3ccccc3O[C@H]3CC[C@H](N)CC3)[nH]n2)cn1 [Example 1-51, 5-((5-(2-(((1r,4r)-4-aminocyclohexyl)oxy)phenyl)-1H-pyrazol-3-yl)amino)pyrazine-2-carbonitrile]	10 to 100	> 1000
N#Cc1cnc(Nc2cc(-c3ncccc3O[C@@H]3CC[C@@H](N)C3)[nH]n2)cn1 [Example 1-58, 5-((5-(3-(((1R,3R)-3-aminocyclopentyl)oxy)pyridin-2-yl)-1H-pyrazol-3-yl)amino)pyrazine-2-carbonitrile]	≤ 10	≤ 50
CN[C@H]1CC[C@@H](Oc2cccc(OC)c2-c2cc(Nc3cnc(C#N)cn3)n[nH]2)C1 [Example 1-46, 5-((5-(2-methoxy-6-(((1R,3S)-3-(methylamino)cyclopentyl)oxy)phenyl)-1H-pyrazol-3-yl)amino)pyrazine-2-carbonitrile]	≤ 10	≤ 50
N#Cc1cnc(Nc2cc(-c3nc(C(F)(F)F)ccc3O[C@@H]3CC[C@H](N)C3)[nH]n2)cn1 [Example 3-49, 5-((5-(3-(((1R,3S)-3-aminocyclopentyl)oxy)-6-(trifluoromethyl)pyridin-2-yl)-1H-pyrazol-3-yl)amino)pyrazine-2-carbonitrile]	10 to 100	100 to 500
N#Cc1cnc(Nc2cc(-c3ncccc3O[C@H]3CC[C@@H](N)C3)[nH]n2)cn1 [Example 3-42, 5-((5-(3-(((1S,3R)-3-aminocyclopentyl)oxy)pyridin-2-yl)-1H-pyrazol-3-yl)amino)pyrazine-2-carbonitrile]	10 to 100	100 to 500
CCOc1cccc(O[C@H]2C[C@H](N)C2)c1-c1cc(Nc2cnc(C#N)cn2)n[nH]1 [Example 1-12, 5-((5-(2-((1r,3r)-3-aminocyclobutoxy)-6-ethoxyphenyl)-1H-pyrazol-3-yl)amino)pyrazine-2-carbonitrile]	≤ 10	100 to 500
CCOc1cccc(O[C@@H]2CC[C@H](N)C2)c1-c1cc(Nc2cnc(C#N)cn2)n[nH]1 [Example 1-23, 5-((5-(2-(((1R,3S)-3-aminocyclopentyl)oxy)-6-ethoxyphenyl)-1H-pyrazol-3-yl)amino)pyazine-2-carbonitrile]	10 to 100	100 to 500
N#Cc1cnc(Nc2cc(-c3c(F)cccc3O[C@@H]3CC[C@H](N)C3)[nH]n2)cn1 [Example 1-22, 5-((5-(2-(((1R,3S)-3-aminocyclopentyl)oxy)-6-fluorophenyl)-1H-pyrazol-3-yl)amino)pyrazine-2-carbonitrile]	10 to 100	100 to 500
N#Cc1cnc(Nc2cc(-c3ncccc3O[C@@H]3CC[C@H](N)C3)[nH]n2)cn1 [Example 1-63, 5-((5-(3-(((1R,3S)-3-aminocyclopentyl)oxy)pyridin-2-yl)-1H-pyrazol-3-yl)amino)pyrazine-2-carbonitrile]	10 to 100	100 to 500
N#Cc1cnc(Nc2cc(-c3c(O[C@@H]4CC[C@@H](N)C4)ccc(F)c3F)[nH]n2)cn1 [Example 3-28, 5-((5-(6-(((1R,3R)-3-aminocyclopentyl)oxy)-2,3-difluorophenyl)-1H-pyrazol-3-yl)amino)pyrazine-2-carbonitrile]	≤ 10	100 to 500
COc1ccc(F)c(O[C@@H]2CC[C@H](N)C2)c1-c1cc(Nc2cnc(C#N)cn2)n[nH]1 [Example 1-27, 5-((5-(2-(((1R,3S)-3-aminocyclopentyl)oxy)-3-fluoro-6-methoxyphenyl)-1H-pyrazol-3-yl)amino)pyrazine-2-carbonitrile]	10 to 100	100 to 500
Cc1nc(Nc2cc(-c3ccccc3O[C@@H]3CC[C@H](N)C3)[nH]n2)cnc1C#N [Example 1-40, 5-((5-(2-(((1R,3S)-3-aminocyclopentyl)oxy)phenyl)-1H-pyrazol-3-yl)amino)-3-methylpyrazine-2-carbonitrile]	100 to 500	> 1000
N#Cc1cnc(Nc2cc(-c3c(F)cccc3O[C@H]3C[C@H](N)C3)[nH]n2)cn1 [Example 1-13, 5-((5-(2-((1r,3r)-3-aminocyclobutoxy)-6-fluorophenyl)-1H-pyrazol-3-yl)amino)pyrazine-2-carbonitrile]	10 to 100	100 to 500
COc1cccc(O[C@H]2CC3(C[C@@H](N)C3)C2)c1-c1cc(Nc2cnc(C#N)cn2)n[nH]1 (some centres unmarked) [Example 3-10, 5-((5-(2-((6-aminospiro[3.3]heptan-2-yl)oxy)-6-methoxyphenyl)-1H-pyrazol-3-yl)amino)pyrazine-2-carbonitrile]	≤ 10	≤ 50
N#Cc1cnc(Nc2cc(-c3ncccc3O[C@@H]3CC[C@@H](N)C3)[nH]n2)cn1 (stereo in doubt) [Example 1-59, 5-((5-(3-(((1R,3R)-3-aminocyclopentyl)oxy)pyridin-2-yl)-1H-pyrazol-3-yl)amino)pyrazine-2-carbonitrile]	100 to 500	> 1000
COc1c(F)ccc(O[C@H]2C[C@H](N)C2)c1-c1cc(Nc2cnc(C#N)cn2)n[nH]1 [Example 2-3, 5-((5-(6-((1r,3r)-3-aminocyclobutoxy)-3-fluoro-2-methoxyphenyl)-1H-pyrazol-3-yl)amino)pyrazine-2-carbonitrile]	10 to 100	100 to 500
N#Cc1cnc(Nc2cc(-c3ccccc3O[C@@H]3CC[C@H](N)C3)[nH]n2)cn1 [Example 1-52, 5-((5-(2-(((1R,3S)-3-aminocyclopentyl)oxy)phenyl)-1H-pyrazol-3-yl)amino)pyrazine-2-carbonitrile]	10 to 100	100 to 500
COc1c(F)ccc(O[C@H]2CC[C@H](N)CC2)c1-c1cc(Nc2cnc(C#N)cn2)n[nH]1 [Example 1-20, 5-((5-(6-(((1r,4r)-4-aminocyclohexyl)oxy)-3-fluoro-2-methoxyphenyl)-1H-pyrazol-3-yl)amino)pyrazine-2-carbonitrile]	10 to 100	100 to 500
N#Cc1cnc(Nc2cc(-c3cccc(Cl)c3O[C@@H]3CC[C@H](N)C3)[nH]n2)cn1 [Example 3-14, 5-((5-(2-(((1R,3S)-3-aminocyclopentyl)oxy)-3-chlorophenyl)-1H-pyrazol-3-yl)amino)pyrazine-2-carbonitrile]	500 to 1000	> 1000

From patent US11707462B2, “Checkpoint kinase 1 (CHK1) inhibitors and uses thereof” (Boundless Bio, Inc., priority 2021, dated 2023)
